Experimental data taken from ChEMBL document CHEMBL1201862, “PubChem BioAssay data set” (2004).
Calls of active or inactive are those of the source.

Legend:
[1] = target: T1, Mannose-6-phosphate isomerase (Homo sapiens, UniProt P34949); assay: human PMI inhibitors, high substrate, primary screen, biochemical, fluorescence intensity, high mannose 6-phosphate (AID 1220)
T1 sequence (P34949 whole entry): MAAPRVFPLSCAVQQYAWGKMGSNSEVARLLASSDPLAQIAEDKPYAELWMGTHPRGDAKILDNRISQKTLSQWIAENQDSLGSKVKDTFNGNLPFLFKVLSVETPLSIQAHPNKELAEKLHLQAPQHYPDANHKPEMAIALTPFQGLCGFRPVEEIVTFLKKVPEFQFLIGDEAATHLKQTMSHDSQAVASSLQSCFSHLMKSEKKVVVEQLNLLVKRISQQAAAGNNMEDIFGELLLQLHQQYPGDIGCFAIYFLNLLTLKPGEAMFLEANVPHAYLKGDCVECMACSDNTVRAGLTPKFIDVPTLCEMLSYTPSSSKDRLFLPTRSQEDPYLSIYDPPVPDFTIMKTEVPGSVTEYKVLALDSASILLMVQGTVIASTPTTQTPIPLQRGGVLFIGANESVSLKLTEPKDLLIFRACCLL

[2] = target: T2, Rac GTPase-activating protein 1 (Homo sapiens, UniProt Q9H0H5); assay: MgcRacGAP GTPase-activating activity inhibitors, confirmation, biochemical, ADP Hunter fluorescence, primary and confirmatory (AID 624330); type: functional
T2 sequence (Q9H0H5 whole entry): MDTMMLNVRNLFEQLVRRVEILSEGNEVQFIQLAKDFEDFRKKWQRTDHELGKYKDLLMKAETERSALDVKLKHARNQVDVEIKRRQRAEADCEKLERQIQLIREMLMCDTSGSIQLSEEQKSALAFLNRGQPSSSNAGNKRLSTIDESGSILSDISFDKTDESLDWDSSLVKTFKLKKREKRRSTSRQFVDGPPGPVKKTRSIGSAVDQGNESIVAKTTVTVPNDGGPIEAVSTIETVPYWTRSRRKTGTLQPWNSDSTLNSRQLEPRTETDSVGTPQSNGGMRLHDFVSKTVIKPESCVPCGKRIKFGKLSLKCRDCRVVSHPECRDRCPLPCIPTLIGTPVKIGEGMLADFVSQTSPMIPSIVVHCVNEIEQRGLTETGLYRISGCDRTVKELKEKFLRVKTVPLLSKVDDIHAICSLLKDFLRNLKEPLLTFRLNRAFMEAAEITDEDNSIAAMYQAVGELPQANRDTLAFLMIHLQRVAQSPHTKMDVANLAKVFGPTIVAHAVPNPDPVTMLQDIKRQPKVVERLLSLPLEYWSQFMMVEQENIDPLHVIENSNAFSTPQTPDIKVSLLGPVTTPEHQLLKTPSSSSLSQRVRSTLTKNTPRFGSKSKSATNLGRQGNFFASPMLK

[3] = target: Luciferin 4-monooxygenase (Photinus pyralis, UniProt P08659); assay: firefly luciferase enzyme inhibitors, dose response, biochemical, luminescence (AID 1891)
Chain of Luciferin 4-monooxygenase (P08659 whole entry): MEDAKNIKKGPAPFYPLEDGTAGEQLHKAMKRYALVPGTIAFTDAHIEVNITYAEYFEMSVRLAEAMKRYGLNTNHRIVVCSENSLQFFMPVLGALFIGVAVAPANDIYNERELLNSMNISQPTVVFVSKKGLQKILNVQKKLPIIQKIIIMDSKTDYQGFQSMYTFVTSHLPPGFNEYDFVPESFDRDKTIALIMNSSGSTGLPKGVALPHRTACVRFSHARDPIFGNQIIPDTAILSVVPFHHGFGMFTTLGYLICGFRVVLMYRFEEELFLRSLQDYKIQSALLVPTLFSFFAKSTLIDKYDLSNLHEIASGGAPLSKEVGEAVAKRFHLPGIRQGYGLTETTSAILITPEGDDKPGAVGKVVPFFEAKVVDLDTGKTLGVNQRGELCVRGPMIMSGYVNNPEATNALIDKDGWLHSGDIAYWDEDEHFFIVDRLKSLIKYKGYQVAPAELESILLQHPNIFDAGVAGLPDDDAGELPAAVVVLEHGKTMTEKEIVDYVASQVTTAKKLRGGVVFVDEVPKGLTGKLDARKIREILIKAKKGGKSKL

[4] = Luminescence Cell-Based Dose Confirmation HTS to Identify Inhibitors of Platelet Dense Granule Release. [Related pubchem assays: 1663 (Primary HTS), 1678 (Summary of Project)]; type: functional
[5] = NIH-3T3 fibroblast cytotoxicity, dose response, cytotoxicity control, cell-based, fluorescence, Alamar Blue, secondary assay (AID 2327); type: functional;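 note: NIH-3T3 mouse fibroblasts cultured with fluconazole at 8 µg/mL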
[6] = tested on: Streptococcus sp. 'group A'; assay: growth inhibition of control SK(-) GAS strain, dose response, counter-screen for streptokinase expression inhibitor project, luminescence, kanamycin, BacTiterGlo, confirmation (AID 1900); type: functional, organism-based
[7] = C. albicans growth with fluconazole, confirmation, fluorescence, retest (AID 2467); type: functional, cell-based
Streptococcus = assay: Group A Streptococcus viability loss, dose response, counter-screen for streptokinase expression inhibitor project, luminescence, BacTiterGlo (AID 1915); type: functional, organism-based;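 note: potency for reduction of bacterial viability or growth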
Streptokinase A = target: T3, Streptokinase A (Streptococcus pyogenes serotype M1, UniProt P10520); assay: S. pyogenes streptokinase expression inhibitors, potency, dose response, plasminogen activation absorbance, OD405 (AID 1914); type: functional, Streptococcus pyogenes M1 GAS;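 note: secreted streptokinase activity via plasminogen activation per viability signal from cell pellet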
T3 sequence (P10520 whole entry): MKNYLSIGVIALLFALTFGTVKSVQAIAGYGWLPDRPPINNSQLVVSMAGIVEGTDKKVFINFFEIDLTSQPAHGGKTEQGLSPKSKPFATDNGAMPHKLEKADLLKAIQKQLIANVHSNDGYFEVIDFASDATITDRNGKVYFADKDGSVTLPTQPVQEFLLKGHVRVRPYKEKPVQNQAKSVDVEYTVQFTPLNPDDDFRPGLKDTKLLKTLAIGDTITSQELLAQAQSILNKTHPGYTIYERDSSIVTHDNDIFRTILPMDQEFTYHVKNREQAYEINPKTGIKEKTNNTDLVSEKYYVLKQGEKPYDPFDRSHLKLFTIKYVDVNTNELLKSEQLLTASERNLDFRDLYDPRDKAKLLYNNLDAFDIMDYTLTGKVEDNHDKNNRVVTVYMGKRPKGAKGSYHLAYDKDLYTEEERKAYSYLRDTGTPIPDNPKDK

[8] = cytotoxicity toward NIH3T3 fibroblasts, dose response, counter-screen, cell-based, ATP luminescence, mouse fibroblasts (AID 2010); type: functional;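 note: cells exposed to compound for about 90 hours before reading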
[9] = inhibitors of intracellular T. cruzi replication, confirmation, NIH3T3 host cells, beta-gal luminescence (AID 2044); type: functional, cell-based;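 note: intracellular parasites grown in NIH/3T3 mouse fibroblasts as host cells; luminescent beta-galactosidase reporter signal from transgenic T. cruzi replicating inside host cells; inhibitors lower the luminescence signal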
[10] = P. falciparum Dd2 growth inhibitors, dose response, SYBR Green, cherry-picked samples (AID 1159567); type: functional, cell-based
[11] = target: FAD-linked sulfhydryl oxidase ALR (Homo sapiens, UniProt P55789); assay: inhibitors of human ALR sulfhydryl oxidase, dose response, biochemical, H2O2 detection, luminescence, cherry-pick (AID 493248)
Chain of FAD-linked sulfhydryl oxidase ALR (P55789 whole entry): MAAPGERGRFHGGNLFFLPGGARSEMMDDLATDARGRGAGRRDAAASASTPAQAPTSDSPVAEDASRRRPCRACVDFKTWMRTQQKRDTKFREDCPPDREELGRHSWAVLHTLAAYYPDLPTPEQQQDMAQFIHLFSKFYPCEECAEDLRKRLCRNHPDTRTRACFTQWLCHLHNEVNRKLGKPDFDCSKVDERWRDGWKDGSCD

[12] = target: T4, Polyadenylate-binding protein 1 (Homo sapiens, UniProt P11940); assay: PABP1 MLLE–PAM2 interaction inhibitors, dose response, miRNA deadenylation inhibitor project, biochemical, fluorescence polarization, Cy5-PAM2 peptide, secondary (AID 602260); type: functional; details: read-out: IC50_Mean
T4 sequence (P11940 whole entry): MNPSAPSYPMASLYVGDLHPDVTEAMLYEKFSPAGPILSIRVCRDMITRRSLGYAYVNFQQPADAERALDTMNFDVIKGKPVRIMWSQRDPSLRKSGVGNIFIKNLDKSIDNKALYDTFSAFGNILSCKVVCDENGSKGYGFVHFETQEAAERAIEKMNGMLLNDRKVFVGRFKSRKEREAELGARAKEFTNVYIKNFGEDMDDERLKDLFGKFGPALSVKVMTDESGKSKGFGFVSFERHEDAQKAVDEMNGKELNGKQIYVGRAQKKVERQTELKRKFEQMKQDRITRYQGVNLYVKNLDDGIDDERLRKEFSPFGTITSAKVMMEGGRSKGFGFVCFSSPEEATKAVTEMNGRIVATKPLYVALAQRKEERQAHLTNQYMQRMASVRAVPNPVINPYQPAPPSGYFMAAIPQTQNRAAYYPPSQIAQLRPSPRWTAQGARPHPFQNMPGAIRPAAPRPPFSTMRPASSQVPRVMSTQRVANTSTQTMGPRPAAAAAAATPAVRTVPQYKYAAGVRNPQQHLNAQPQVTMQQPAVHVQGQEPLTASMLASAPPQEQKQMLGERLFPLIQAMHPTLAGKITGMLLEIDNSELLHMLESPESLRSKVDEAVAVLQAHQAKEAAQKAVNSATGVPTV

[13] = target: T4, Polyadenylate-binding protein 1; assay: PABP1 MLLE–PAM2 binding inhibitor potency, dose response, biochemical, fluorescence polarization, FITC-PAM2 peptide (AID 602259); type: functional; details: read-out: IC50_Mean
[14] = growth suppression of beta-catenin-knockout colon cells, dose response, cell-based, HCT116, human colon tumor (AID 1045); type: functional;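 note: HCT116 colon tumor cells with beta catenin knocked out; cells exposed to compound for 60 hours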
[15] = growth suppression of PTEN-null colon cells, dose response, cell-based, HCT116 PTEN knockout (AID 1047); type: functional;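 note: HCT116 colon tumor cells with PTEN knocked out; cells exposed to compound for 60 hours before readout; potency for loss of cell viability measured by luminescence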
[16] = Luminescence Cell-Based Dose Retest to Confirm Inhibitors of Cancer Stem Cells. [Related pubchem assays (depositor defined):AID2717, AID2721]; type: functional; details: Homo sapiens
[17] = target: T5, Ubiquitin-conjugating enzyme E2 N (Homo sapiens, UniProt P61088); type: functional;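 note: Dose-response confirmation in a TR-FRET assay detecting UBC13-driven polyubiquitin chain formation, inhibition measured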
T5 sequence (P61088 whole entry): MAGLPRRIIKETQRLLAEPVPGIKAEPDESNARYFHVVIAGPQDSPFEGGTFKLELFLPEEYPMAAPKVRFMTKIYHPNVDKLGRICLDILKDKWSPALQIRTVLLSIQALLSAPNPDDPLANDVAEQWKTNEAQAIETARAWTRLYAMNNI

[18] = HepG2 cell cytotoxicity, dose response, cytotoxicity control for Shn3 inhibitor project, CellTiter-Glo, cherry-picked (AID 624134); type: functional, cell-based
[19] = Shn3 3'UTR reporter inhibitors, dose response, cell-based, Clone20 osteoblasts, firefly luciferase, cherry-picked (AID 624132); type: functional;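 note: firefly luciferase luminescence from reporter carrying the Shn3 3'UTR in osteoblasts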
[20] = control 3'UTR Renilla luciferase suppression, dose response, counter-screen for Shn3 inhibitor project, cell-based, Clone20-Shn3RL, cherry-picked (AID 624133); type: functional
Nonstructural protein 1 = Nonstructural protein 1 (Influenza A virus, UniProt Q194T2); type: functional, Influenza A virus (A/California/07/2009(H1N1))
Chain of Nonstructural protein 1 (Q194T2 whole entry): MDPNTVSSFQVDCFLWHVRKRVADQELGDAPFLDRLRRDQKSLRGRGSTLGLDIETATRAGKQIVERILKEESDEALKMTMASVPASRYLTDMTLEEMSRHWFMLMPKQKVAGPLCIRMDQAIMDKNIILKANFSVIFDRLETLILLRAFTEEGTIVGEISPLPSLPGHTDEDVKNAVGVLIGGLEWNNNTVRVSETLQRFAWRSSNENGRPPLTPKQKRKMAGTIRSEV

[21] = target: T6, Corticotropin-releasing factor receptor 2/Corticotropin-releasing factor-binding protein (Homo sapiens, UniProt P24387+Q13324); assay: Dose Response confirmation of uHTS hits for small molecule antagonists of the CRF-binding protein and CRF-R2 receptor complex.; type: functional; details: read-out: IC50_Mean
T6 sequence (Q13324 whole entry): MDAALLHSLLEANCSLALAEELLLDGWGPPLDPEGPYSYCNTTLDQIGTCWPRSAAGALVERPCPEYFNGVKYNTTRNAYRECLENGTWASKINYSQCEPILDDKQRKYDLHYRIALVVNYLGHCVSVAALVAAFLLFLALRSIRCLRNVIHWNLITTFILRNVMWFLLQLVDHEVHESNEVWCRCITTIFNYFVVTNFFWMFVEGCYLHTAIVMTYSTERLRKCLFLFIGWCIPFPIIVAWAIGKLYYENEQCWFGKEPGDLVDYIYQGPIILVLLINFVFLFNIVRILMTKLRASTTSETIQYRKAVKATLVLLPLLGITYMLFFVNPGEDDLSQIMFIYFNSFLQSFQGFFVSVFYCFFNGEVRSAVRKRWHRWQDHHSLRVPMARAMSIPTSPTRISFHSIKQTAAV
T6 sequence (P24387 whole entry): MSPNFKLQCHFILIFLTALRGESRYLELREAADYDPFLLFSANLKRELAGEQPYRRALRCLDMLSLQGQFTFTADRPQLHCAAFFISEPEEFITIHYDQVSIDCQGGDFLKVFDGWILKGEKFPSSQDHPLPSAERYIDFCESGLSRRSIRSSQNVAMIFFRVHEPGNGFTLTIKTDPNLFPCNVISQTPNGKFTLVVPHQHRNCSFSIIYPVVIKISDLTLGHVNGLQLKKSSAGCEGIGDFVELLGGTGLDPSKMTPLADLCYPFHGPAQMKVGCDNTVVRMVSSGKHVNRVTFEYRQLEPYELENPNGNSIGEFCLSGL

[22] = target: T6, Corticotropin-releasing factor receptor 2/Corticotropin-releasing factor-binding protein; assay: activators of CRF receptor 2 with binding protein – uHTS hits, confirmation (AID 602473); type: functional; details: read-out: EC50_Mean

SMILES: CCOc1cc(CNc2ccc3[nH]c(O)nc3c2)ccc1OCC(=O)NC(C)(C)C
- IC50 [1]: > 50 µM (not active)
- IC50 [2]: 60.2 µM (active)
- EC50 [3]: > 112 µM (not active)
- EC50 [4]: 12 µM (active)

SMILES: O=C(CCS(=O)(=O)c1ccccc1)Nc1nc2cc3c(cc2s1)OCCO3
- EC50 [5]: > 160 µM (inactive)
- EC50 [6]: 79.6 µM (active)
- EC50 [7]: 1.75 µM (active)
- EC50 (Streptococcus): > 150 µM (not active)
- EC50 (Streptokinase A): > 150 µM (not active)

SMILES: CC1=C(C(N)=O)C(c2ccc(C)o2)C(C(N)=O)=C(C)N1
- EC50 [5]: > 160 µM (inactive)
- EC50 [7]: > 38 µM (not active)

SMILES: Cc1cc(/C=N/NC(N)=S)c(C)n1-c1cccc(Cl)c1
- EC50 [8]: > 60 µM (not active)
- EC50 [5]: > 150 µM (inconclusive)
- EC50 [7]: 3.69 µM (active)
- EC50 [9]: 0.984 µM (active)

SMILES: CO[C@@H]1CN(C)C(=O)c2cc(NC(=O)C3CC3)ccc2OC[C@H](C)N(CC2CCCC2)C[C@H]1C
- AC50 [10]: 4.45 µM (active)

SMILES: CCSc1nnc(NC(=O)c2cccc(S(=O)(=O)N(C)c3ccc(C)cc3)c2)s1
- AC50 [11]: 1.12 µM (active)

SMILES: CCC(=O)N1CC2(CCN(Cc3ccc(Cl)cc3)CC2)c2c(n(C)c3cc(OC)ccc23)[C@@H]1CO
- AC50 [10]: 7.31 µM (active)

SMILES: N#C/C(=N\Nc1ccc(S(=O)(=O)N2CCCCCC2)cc1)C(N)=S
- IC50 [12]: > 66 µM (inactive)
- IC50 [13]: > 66 µM (inactive)
- EC50 [6]: 22.7 µM (active)
- EC50 (Streptococcus): > 150 µM (not active)
- EC50 (Streptokinase A): > 150 µM (not active)

SMILES: CCN1CCN(c2cc(C)c3cc(NC(=O)c4cncc(Br)c4)ccc3n2)CC1
- EC50 [14]: 13.9 µM (active)
- EC50 [15]: 16.2 µM (active)

SMILES: CCC(=O)N1CC2(C1)CN(Cc1cc(F)ccc1F)[C@H](CO)c1[nH]c3cc(OC)ccc3c12
- AC50 [10]: 5.73 µM (active)

SMILES: Nc1c(C(=O)Nc2ccccc2)c2nc3ccccc3nc2n1CCCN1CCOCC1
- AC50 [16]: 5.96 µM (active)
- IC50 [17]: > 20 µM (inactive)

SMILES: O=C(CCc1ccccc1)NNC(=O)c1ccccn1
- IC50 [17]: > 20 µM (inactive)

SMILES: COc1ccc(NC(=O)CNC(=O)c2nn(-c3ccc(OC)cc3OC)c(=O)c3ccccc23)c(OC)c1
- EC50 [5]: 132 µM (active)
- EC50 [7]: 1.55 µM (active)

SMILES: O=C(C1CCC1)N1CC(=O)N2[C@H](CO)[C@@H](c3ccc(C#CCc4ccccc4)cc3)[C@@H]2C1
- AC50 [10]: 4.27 µM (active)

SMILES: CC(C)(C)[S@@+]([O-])N1Cc2cc(C(=O)NC3CCC3)nc(-c3cccc(Br)c3)c2[C@H]1CCO
- AC50 [10]: 5.58 µM (active)

SMILES: CN(C(=S)Nc1ccc(Oc2ccccc2)cc1)c1ccc(O)cc1
- IC50 [1]: > 50 µM (not active)

SMILES: CN(C)C(=O)c1cccc(-c2ccc3c(c2)[C@H]2[C@H](CCN2C(=O)C2CC2)[C@@H](CO)N3)c1
- AC50 [10]: 17.5 µM (active)

SMILES: Oc1cc(-c2ccncc2)cc2cccnc12
- AC50 [18]: 10.9 µM (active)
- AC50 [19]: 5.4 µM (active)
- AC50 [20]: 3.51 µM (active)
- IC50 (Nonstructural protein 1): 11.9 µM (active)

SMILES: COc1ccc(Cl)cc1/C=N/NC(=O)c1c(-c2ccccc2)noc1C
- IC50 [17]: > 20 µM (inactive)

SMILES: CCn1c(NC(=O)c2cccs2)nc2ccccc21
- EC50 [5]: 48.8 µM (active)
- EC50 [7]: 1.43 µM (active)

SMILES: CCC(=O)NC(=S)NNC(=O)c1ccc([N+](=O)[O-])cc1
- IC50 [17]: > 20 µM (inactive)

SMILES: COc1ccc2c(c1)-c1nc(/N=C/c3ccc(O)cc3)sc1CC2
- IC50 [21]: > 47.1 µM (inactive)
- IC50 [1]: > 50 µM (not active)
- EC50 [22]: > 53 µM (inactive)

SMILES: CC1CN(C(S)=Nc2cccc([N+](=O)[O-])c2)CC(C)O1 (centres undefined)
- EC50 [5]: > 160 µM (inactive)
- EC50 [7]: > 38 µM (not active)

SMILES: Cc1ccc(NCCC(=O)c2cccc([N+](=O)[O-])c2)c(C)c1
- IC50 [1]: > 50 µM (not active)
